Values quoted from earlier work, collected in patent US10485783B1, “Methods and compositions for reducing or eliminating symptoms of withdrawal from drugs and alcohol” (Longevity Healthcare Center, priority 2018, dated 2019).

Key:
[1] = tested on: GABAA and GABAB receptors; details: synergistic with a GABAA receptor agonist, blocked by a GABAB receptor agonist
[2] = in vitro
[3] = tested on: rats self-administering morphine; details: morphine 2 hours per day on 10 consecutive days, then ascorbic acid intraperitoneally

In the case of CNC1(c2ccccc2Cl)CCCCC1=O (stereo not shown) [Ketamine], the anti-depressive activity [1] is given as “anti-depressive activity”.

For O=C1O[C@H]([C@@H](O)CO)C(O)=C1O [ascorbic acid], the anti-depressive activity [1] is listed as “anti-depressive activity”, the “concentration at which ascorbic acid generates free radicals (pro-oxidant)” value [2] is listed as 3 to 5 mM and the “level of morphine self-administration (number of lever pressings) and number and intensity of withdrawal symptoms” value [3] is listed as “decrease”.
